Columns and labels:
[1] = target: Gamma-aminobutyric acid receptor subunit alpha-1/alpha-2/beta-2/gamma-2 (Homo sapiens, UniProt P14867+P18507+P47869+P47870); format: functional, cell-based
[2] = target: 5-hydroxytryptamine receptor 6 (Homo sapiens, UniProt P50406)
[3] = target: 5-hydroxytryptamine receptor 7 (Homo sapiens, UniProt P34969)
[4] = target: T1, Alpha-2A adrenergic receptor (Homo sapiens, UniProt P08913)
T1 sequence (P08913 whole entry): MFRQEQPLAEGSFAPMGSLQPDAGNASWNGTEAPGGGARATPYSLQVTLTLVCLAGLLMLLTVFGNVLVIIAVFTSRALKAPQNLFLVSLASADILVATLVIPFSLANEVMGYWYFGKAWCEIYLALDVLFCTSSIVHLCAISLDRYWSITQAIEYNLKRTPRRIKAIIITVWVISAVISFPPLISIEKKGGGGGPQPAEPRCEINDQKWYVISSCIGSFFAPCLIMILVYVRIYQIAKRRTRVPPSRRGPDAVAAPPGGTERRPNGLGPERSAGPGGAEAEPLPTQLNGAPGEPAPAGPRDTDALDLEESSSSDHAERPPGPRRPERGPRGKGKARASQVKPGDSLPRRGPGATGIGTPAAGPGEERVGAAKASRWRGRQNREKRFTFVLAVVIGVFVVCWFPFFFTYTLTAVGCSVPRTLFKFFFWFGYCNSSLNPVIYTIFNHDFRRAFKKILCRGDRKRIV

[5] = target: Beta-1 adrenergic receptor (Homo sapiens, UniProt P08588); format: functional, cell-based
Sequence of Beta-1 adrenergic receptor (P08588 whole entry): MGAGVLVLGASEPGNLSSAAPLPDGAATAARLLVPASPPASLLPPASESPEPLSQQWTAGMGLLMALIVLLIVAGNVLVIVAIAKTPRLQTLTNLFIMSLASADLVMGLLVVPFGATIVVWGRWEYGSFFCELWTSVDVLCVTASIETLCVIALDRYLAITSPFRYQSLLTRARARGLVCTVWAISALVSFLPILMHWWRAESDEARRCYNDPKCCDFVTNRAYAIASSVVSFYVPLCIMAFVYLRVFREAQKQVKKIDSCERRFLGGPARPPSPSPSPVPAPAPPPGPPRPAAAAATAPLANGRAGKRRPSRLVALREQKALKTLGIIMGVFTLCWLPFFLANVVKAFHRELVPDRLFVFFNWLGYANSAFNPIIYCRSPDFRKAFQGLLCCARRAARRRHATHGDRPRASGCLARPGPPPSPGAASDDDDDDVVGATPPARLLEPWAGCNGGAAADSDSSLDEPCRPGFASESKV

D(1A) dopamine receptor = D(1A) dopamine receptor (Homo sapiens, UniProt P21728)
Sequence of D(1A) dopamine receptor (P21728 whole entry): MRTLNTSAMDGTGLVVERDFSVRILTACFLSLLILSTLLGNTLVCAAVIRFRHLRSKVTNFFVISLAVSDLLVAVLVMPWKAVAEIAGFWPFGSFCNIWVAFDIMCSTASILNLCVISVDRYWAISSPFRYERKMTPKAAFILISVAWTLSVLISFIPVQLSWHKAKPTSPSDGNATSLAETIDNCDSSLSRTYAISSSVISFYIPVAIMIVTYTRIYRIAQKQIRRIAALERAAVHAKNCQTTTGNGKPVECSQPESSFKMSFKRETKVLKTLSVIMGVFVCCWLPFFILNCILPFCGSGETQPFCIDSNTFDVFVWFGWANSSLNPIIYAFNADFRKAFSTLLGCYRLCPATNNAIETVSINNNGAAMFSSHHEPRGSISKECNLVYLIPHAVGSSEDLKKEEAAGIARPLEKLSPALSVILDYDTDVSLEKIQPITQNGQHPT

[6] = target: T2, Alpha-1A adrenergic receptor (Homo sapiens, UniProt P35348)
T2 sequence (P35348 whole entry): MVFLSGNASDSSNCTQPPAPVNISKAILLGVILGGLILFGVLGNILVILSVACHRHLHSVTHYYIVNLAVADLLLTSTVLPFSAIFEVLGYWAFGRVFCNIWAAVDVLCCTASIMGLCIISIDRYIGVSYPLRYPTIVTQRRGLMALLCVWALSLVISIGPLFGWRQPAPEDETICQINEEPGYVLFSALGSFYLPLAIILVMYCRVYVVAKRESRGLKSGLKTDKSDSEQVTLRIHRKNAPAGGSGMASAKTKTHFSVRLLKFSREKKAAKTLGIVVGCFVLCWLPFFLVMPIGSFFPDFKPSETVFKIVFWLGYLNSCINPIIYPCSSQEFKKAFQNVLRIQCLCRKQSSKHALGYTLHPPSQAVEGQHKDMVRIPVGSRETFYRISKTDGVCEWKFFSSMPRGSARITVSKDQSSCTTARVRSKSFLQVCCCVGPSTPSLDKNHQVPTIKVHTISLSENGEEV

[7] = target: T3, Muscarinic acetylcholine receptor M5 (Homo sapiens, UniProt P08912)
T3 sequence (P08912 whole entry): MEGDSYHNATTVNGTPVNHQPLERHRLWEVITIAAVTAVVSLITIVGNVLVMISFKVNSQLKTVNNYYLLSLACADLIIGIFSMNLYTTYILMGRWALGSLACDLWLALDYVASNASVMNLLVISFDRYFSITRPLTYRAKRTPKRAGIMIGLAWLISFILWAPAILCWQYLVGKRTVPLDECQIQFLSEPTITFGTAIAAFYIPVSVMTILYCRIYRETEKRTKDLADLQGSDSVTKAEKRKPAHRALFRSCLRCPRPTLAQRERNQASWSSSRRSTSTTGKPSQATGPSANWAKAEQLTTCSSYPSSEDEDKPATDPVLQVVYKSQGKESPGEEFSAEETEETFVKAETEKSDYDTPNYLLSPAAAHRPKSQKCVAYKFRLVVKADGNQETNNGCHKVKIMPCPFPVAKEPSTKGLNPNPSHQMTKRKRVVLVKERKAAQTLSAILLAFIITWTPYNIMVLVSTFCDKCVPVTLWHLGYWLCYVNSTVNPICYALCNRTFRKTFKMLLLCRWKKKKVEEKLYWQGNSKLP

D(1B) dopamine receptor = D(1B) dopamine receptor (Homo sapiens, UniProt P21918)
[8] = target: T4, Muscarinic acetylcholine receptor M4 (Homo sapiens, UniProt P08173)
T4 sequence (P08173 whole entry): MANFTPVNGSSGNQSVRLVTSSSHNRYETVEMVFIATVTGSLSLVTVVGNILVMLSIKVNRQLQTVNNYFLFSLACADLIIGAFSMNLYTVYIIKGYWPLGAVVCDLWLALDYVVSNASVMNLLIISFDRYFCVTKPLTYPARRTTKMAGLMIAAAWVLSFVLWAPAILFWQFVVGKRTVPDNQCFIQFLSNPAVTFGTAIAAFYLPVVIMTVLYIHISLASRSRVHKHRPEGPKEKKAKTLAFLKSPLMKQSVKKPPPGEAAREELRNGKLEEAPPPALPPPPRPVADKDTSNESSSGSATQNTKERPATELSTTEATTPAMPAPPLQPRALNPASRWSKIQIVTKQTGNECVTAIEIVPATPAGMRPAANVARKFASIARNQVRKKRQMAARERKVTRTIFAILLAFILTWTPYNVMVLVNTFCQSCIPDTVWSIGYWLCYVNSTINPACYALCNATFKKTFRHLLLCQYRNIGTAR

[9] = target: 5-hydroxytryptamine receptor 5A (Homo sapiens, UniProt P47898)
Sequence of 5-hydroxytryptamine receptor 5A (P47898 whole entry): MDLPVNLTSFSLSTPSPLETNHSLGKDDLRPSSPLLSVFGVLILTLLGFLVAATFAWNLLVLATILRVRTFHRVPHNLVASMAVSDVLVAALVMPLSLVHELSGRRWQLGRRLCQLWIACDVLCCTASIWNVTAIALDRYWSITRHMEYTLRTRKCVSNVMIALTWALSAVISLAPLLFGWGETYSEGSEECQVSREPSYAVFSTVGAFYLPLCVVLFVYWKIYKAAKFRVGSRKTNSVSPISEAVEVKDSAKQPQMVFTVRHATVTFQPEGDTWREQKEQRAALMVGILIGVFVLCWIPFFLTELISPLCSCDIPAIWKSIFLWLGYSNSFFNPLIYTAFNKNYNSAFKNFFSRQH

[10] = target: Rod cGMP-specific 3',5'-cyclic phosphodiesterase subunit alpha (Homo sapiens, UniProt P16499); format: functional
Sequence of Rod cGMP-specific 3',5'-cyclic phosphodiesterase subunit alpha (P16499 whole entry): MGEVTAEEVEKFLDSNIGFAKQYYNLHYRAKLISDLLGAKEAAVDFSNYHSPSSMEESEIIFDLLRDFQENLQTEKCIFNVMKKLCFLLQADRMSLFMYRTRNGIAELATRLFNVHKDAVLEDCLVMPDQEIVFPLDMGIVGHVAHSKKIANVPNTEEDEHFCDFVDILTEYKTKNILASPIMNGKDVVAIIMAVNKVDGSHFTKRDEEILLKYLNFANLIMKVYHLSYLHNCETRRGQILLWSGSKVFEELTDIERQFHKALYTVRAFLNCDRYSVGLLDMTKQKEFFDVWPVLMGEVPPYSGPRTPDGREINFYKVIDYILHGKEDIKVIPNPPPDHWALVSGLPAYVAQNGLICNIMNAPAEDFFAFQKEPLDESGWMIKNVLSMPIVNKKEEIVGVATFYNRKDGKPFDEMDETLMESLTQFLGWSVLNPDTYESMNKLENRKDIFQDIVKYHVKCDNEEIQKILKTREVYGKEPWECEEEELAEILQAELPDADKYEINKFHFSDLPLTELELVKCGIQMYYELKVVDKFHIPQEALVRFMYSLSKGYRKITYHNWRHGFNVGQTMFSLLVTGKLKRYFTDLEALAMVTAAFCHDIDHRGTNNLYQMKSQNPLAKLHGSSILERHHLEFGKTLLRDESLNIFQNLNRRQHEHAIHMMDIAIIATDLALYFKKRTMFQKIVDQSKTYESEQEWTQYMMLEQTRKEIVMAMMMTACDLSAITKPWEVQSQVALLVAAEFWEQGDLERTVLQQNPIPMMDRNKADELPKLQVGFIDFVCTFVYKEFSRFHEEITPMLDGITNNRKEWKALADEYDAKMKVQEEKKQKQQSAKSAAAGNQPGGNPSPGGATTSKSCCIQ
Further: assay procedure not described here.

Sequence of 5-hydroxytryptamine receptor 7 (P34969 whole entry): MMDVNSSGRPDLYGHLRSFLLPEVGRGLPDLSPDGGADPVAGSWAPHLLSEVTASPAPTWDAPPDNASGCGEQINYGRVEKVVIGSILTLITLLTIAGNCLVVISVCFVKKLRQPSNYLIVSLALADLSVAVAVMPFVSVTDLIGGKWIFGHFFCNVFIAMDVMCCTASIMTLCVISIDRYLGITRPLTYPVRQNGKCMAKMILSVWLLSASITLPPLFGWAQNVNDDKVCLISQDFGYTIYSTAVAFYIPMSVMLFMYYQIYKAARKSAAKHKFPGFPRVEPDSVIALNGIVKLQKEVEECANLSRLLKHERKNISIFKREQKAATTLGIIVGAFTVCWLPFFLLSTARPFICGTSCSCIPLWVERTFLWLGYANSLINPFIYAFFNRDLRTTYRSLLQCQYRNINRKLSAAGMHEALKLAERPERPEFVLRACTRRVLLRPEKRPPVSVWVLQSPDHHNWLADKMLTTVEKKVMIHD
Sequence of 5-hydroxytryptamine receptor 6 (P50406 whole entry): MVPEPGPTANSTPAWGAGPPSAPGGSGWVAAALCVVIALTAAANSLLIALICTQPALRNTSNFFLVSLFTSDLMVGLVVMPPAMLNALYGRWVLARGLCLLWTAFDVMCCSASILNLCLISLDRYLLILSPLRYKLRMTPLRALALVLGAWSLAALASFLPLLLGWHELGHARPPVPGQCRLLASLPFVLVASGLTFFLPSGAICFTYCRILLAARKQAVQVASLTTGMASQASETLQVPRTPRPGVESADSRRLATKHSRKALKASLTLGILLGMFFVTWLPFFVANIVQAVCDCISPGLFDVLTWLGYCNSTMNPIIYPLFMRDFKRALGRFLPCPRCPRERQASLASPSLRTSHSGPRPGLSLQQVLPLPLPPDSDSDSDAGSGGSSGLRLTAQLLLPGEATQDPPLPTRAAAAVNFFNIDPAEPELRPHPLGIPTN
Sequence of Gamma-aminobutyric acid receptor subunit alpha-1/alpha-2/beta-2/gamma-2 (P14867 whole entry): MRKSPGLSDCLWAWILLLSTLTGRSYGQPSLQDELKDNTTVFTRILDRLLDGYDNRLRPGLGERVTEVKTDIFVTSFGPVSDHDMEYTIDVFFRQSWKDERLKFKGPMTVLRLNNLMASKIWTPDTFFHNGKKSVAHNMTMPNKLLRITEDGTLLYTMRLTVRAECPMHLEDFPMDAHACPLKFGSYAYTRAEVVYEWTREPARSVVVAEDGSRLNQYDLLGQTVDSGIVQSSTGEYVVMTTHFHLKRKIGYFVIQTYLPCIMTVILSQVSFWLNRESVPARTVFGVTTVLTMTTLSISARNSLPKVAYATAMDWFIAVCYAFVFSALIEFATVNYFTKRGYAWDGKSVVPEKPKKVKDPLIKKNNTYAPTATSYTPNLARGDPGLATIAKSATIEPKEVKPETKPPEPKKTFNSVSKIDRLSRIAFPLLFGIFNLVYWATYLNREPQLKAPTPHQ
Sequence of Gamma-aminobutyric acid receptor subunit alpha-1/alpha-2/beta-2/gamma-2 (P47870 whole entry): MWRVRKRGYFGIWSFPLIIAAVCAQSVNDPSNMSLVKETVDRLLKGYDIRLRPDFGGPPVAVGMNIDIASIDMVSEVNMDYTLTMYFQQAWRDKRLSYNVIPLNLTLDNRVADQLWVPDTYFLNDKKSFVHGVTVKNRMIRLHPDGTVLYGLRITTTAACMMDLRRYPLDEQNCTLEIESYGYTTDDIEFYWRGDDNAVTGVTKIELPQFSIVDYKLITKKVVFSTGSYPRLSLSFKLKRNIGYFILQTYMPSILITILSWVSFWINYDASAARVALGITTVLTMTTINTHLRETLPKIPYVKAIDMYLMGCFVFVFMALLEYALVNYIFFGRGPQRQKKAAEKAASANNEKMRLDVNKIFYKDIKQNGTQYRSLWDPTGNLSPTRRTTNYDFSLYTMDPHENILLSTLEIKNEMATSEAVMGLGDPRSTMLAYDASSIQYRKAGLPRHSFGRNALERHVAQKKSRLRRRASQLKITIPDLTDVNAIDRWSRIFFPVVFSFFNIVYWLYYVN
Sequence of Gamma-aminobutyric acid receptor subunit alpha-1/alpha-2/beta-2/gamma-2 (P18507 whole entry): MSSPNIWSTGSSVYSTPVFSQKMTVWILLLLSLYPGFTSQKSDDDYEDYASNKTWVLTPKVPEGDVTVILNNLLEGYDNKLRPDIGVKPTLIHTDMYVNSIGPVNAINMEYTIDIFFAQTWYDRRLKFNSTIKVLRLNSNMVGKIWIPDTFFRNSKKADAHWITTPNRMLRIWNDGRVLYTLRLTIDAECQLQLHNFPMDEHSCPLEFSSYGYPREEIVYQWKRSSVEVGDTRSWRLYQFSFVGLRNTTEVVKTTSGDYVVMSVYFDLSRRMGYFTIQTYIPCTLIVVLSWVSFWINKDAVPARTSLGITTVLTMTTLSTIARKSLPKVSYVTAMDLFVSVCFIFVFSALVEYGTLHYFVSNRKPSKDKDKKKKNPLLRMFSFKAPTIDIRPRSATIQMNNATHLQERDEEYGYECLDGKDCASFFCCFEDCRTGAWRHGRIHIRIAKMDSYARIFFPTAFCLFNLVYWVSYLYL
Sequence of Gamma-aminobutyric acid receptor subunit alpha-1/alpha-2/beta-2/gamma-2 (P47869 whole entry): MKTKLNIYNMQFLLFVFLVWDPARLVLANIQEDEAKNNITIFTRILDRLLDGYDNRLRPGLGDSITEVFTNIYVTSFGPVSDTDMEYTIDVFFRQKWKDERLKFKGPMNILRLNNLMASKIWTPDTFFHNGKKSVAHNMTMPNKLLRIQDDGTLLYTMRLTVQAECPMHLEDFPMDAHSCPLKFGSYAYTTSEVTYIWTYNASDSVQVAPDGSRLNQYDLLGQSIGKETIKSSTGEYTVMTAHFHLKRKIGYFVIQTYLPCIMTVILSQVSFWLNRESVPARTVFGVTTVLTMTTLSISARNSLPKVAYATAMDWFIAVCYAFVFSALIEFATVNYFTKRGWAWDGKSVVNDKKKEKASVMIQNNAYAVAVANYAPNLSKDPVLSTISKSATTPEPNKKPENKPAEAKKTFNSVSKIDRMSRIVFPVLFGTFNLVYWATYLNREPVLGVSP

CCC(C)C(CC)C(N)=O (configuration not stated) [VALNOCTAMIDE]
AC50 [1]: > 30 µM

Cc1cnc(C(=O)NCCc2ccc(S(=O)(=O)NC(=O)NC3CCCCC3)cc2)cn1 [GLIPIZIDE]
AC50 [2]: > 10 µM | AC50 [3]: > 10 µM

C[C@H](Cc1cc2c(c(C(N)=O)c1)N(CCCO)CC2)NCCOc1ccccc1OCC(F)(F)F [SILODOSIN]
AC50 [4]: 6.2 µM

Cc1cc(C(C)(C)C)cc(C)c1CC1=NCCN1 [XYLOMETAZOLINE]
AC50 [5]: > 30 µM | AC50 [4]: 0.005 µM | AC50 [1]: > 30 µM

C=C1CC[C@H](O)C/C1=C/C=C1\CCC[C@]2(C)[C@@H]([C@H](C)/C=C/[C@H](C)C(C)C)CC[C@@H]12 [ERGOCALCIFEROL]
AC50 (D(1A) dopamine receptor): > 30 µM | AC50 [6]: 24.7 µM

C/N=C(\NC)NCc1ccccc1 [BETHANIDINE]
AC50 [1]: > 30 µM

OC1(c2ccc(Cl)cc2)c2ccccc2C2=NCCN21 (configuration not stated) [MAZINDOL]
AC50 [2]: > 10 µM | AC50 [3]: > 10 µM | AC50 [7]: > 10 µM | AC50 (D(1B) dopamine receptor): > 10 µM | AC50 [8]: > 10 µM | AC50 [9]: > 10 µM | AC50 [10]: > 10 µM

CN1CCN(C2=Nc3ccccc3Oc3ccc(Cl)cc32)CC1 [LOXAPINE]
AC50 [2]: 0.0574 µM | AC50 [3]: 0.732 µM | AC50 [7]: 0.671 µM | AC50 (D(1B) dopamine receptor): 0.248 µM | AC50 [8]: 3.73 µM | AC50 [9]: 1.04 µM | AC50 [10]: > 10 µM

O=[N+]([O-])c1ccc(O)c2ncccc12 [NITROXOLINE]
AC50 (D(1A) dopamine receptor): > 30 µM | AC50 [6]: > 30 µM | AC50 [1]: > 30 µM

C[C@]12CC[C@@H]3c4ccc(O)cc4C[C@@H](CCCCCCCCC[S+]([O-])CCCC(F)(F)C(F)(F)F)[C@H]3[C@@H]1CC[C@@H]2O (some centres not stated) [FULVESTRANT]
AC50 [1]: > 30 µM

CC(N)C(O)c1ccccc1 (configuration not stated) [PHENYLPROPANOLAMINE]
AC50 [2]: > 10 µM | AC50 [3]: > 10 µM | AC50 [7]: > 10 µM

CC(C(=O)O)c1ccc(CC2CCCC2=O)cc1 (configuration not stated) [LOXOPROFEN]
AC50 [5]: > 30 µM

Source: ChEMBL document CHEMBL5291721, “A preclinical secondary pharmacology resource illuminates target-adverse drug reaction associations of marketed drugs” (Nat Commun, 2023)
